This is an account of results in patent US12060360B2, “Lysyl oxidase inhibitors” (The Institute of Cancer Research: Royal Cancer Hospital, priority 2017, dated 2024).

The test addresses T1, LOX (Mus musculus, UniProt P28301).
T1 construct: Full length LOX cDNA was then PCR cloned into pEGFP-N1 (Clonetech), or biosensor vector proGFP2-N1; expressed in transfected cells; host or cells: MDCK cells grown as cysts on Matrigel, G418-selected
T1 sequence (P28301 163-411): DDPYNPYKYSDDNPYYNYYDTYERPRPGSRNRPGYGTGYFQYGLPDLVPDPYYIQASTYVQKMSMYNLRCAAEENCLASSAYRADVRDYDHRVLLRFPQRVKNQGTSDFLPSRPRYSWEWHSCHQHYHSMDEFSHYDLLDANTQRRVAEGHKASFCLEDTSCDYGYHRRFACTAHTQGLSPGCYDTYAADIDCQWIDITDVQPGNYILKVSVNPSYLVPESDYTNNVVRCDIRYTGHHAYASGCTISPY
The test is described as follows: LOX activity in cysts assay (LOX-roGFP2 biosensor, MDCK cysts). The format is cell-based. The settings on record: for inhibition at 10 µM / inhibition at 2.5 µM / IC50: MDCK cysts; for inhibition at 10 µM: inhibitor added 30 min prior to imaging, read-out: LOX biosensor inhibition (cyst) @ 10 uM; for inhibition at 10 µM / inhibition at 2.5 µM: DMSO = 0%, BAPN 1 mM = 100% inhibition; for inhibition at 2.5 µM: 2.5 uM (stated in cell), read-out: LOX biosensor inhibition (cyst) @ 2.5 uM; for IC50: roGFP2 ratio at basal surface, read-out: LOX biosensor IC50 (cyst). Here is the method: LOX Activity in Cysts Assay (Tang et al, 2017).
All cell lines used in this study were purchased from American Type Culture Collection (ATCC). Mycoplasma contamination was routinely monitored by PCR. Cells used were not found to be Mycoplasma positive. MDCK cell lines were cultured in Dulbecco's Modified Eagle Medium (DMEM) supplemented with 10% fetal bovine serum (FBS) and 1% Penicillin Streptomycin solution (Pen Strep). For GFP constructs transfection in MDCK cells, lipofectamine 3000 was used according to manufactures protocols. Cells were either selected with G418 (Life Technologies) at 5 mg/ml. All cell culture reagents were purchased from Life Technologies.
To produce MDCK cysts, cells were cultured on Matrigel (Corning) with 2% Matrigel supplemented in DMEM with 10% FBS. Cysts were allowed to form for 10 days before subsequent studies.
Mouse LOX cDNA was purchased from OriGene. Full length LOX cDNA was then PCR cloned into pEGFP-N1 (Clonetech), or biosensor vector proGFP2-N1 (Hanson, 2004) using the following primers, […] (forward primer) and […] (reverse primer). For the insertion into pEGFP-N1 or proGFP2-N1, NheI and XhoI restriction sites were added to forward and reverse primers accordingly. Mutant LOX constructs were made using QuickChange II site-directed mutagenesis kit (Agilent Technologies) following manufacture's protocol using LOX-GFP as template. To generate, roGFP2 versions of LOX mutant constructs, LOX mutant cDNA was transferred from pEGFP-N1 to proGFP2-N1 using NheI and XhoI.
All photomicrographs were taken with a Leica TCS SP8 X confocal system. For LOX biosensor imaging, live MDCK cysts were used. The oxidised biosensor was excited using a 405 nm laser, while the reduced biosensor was excited with a 488 nm laser. Emission of the biosensor was recorded at 500 nm˜530 nm range using sequential scans. Ratio images were generated following a published protocol {Kardash, 2011 #376}. Note, while the published protocol generates YFP/CFP ratio images, we used it to generate Oxidised/Reduced (roGFP2 ratio) ratio images. The roGFP2 ratio at the basal surface of MDCK cysts was used to indicate LOX inhibition. LOX inhibitors were added 30 min prior to imaging.
For clarity, readout for DMSO treated cysts represents 0% inhibition (no inhibition) and readout for BAPN at 1 mM is used as 100% inhibition (full inhibition).

SMILES strings stand for the structures.

Broadly, the inhibition is the relative decrease from the control value, in per cent. Regarding `CCOc1ccc(N2C[C@H]3CN(C(=O)NNCCO)C[C@@H]2C(C)(C)C3)cc1` (stereo in doubt) [Example 29, 6-(4-ethoxyphenyl)-N′-(2-hydroxyethyl)-9,9-dimethyl-3,6-diazabicyclo[3.2.2]nonane-3-carbohydrazide], the inhibition at 10 µM worked out at 100%. Regarding `N#CCCN` [BAPN, β-aminopropionitrile, reference compound], the “LOX inhibition in cysts assay (reference used as full inhibition)” value (1 mM, readout used as 100% inhibition) was 100%.

As to `CCOc1ccc(N2C[C@H]3CN(C(=O)Nc4ccc(OC)cc4)C[C@@H]2C(C)(C)C3)cc1` [Example 1, (1S,5S)-6-(4-ethoxyphenyl)-N-(4-methoxyphenyl)-9,9-dimethyl-3,6-diazabicyclo[3.2.2]nonane-3-carboxamide], the inhibition at 10 µM came to 91%. With `CCNC(=O)N1C[C@@H]2CN(c3ccc(F)cc3)[C@H](C1)C(C)(C)C2` [Example 2, (1 S,5S)—N-ethyl-6-(4-fluorophenyl)-9,9-dimethyl-3,6-diazabicyclo[3.2.2]nonane-3-carboxamide], the inhibition at 2.5 µM was 92%. For `CCNC(=O)N1C[C@@H]2CN(c3ccc(OCCOC)cc3)[C@H](C1)C(C)(C)C2` [Example 3, (1S,5S)—N-ethyl-6-(4-(2-methoxyethoxy)phenyl)-9,9-dimethyl-3,6-diazabicyclo[3.2.2]nonane-3-carboxamide], the inhibition at 10 µM was found to be 88%. Consider `CC1(C)C[C@@H]2CN(C(=O)NCCO)C[C@H]1N(c1ccc(N3CCS(=O)(=O)CC3)cc1)C2` [Example 5, (1S,5S)-6-(4-(1,1-dioxidothiomorpholino)phenyl)-N-(2-hydroxyethyl)-9,9-dimethyl-3,6-diazabicyclo[3.2.2]nonane-3-carboxamide], for which the inhibition at 10 µM was 62%. On the same count and under the same terms, the value for `CNC(=O)N1C[C@@H]2CN(c3ccc(N4CCS(=O)(=O)CC4)cc3)[C@H](C1)C(C)(C)C2` [Example 6, (1S,5S)-6-(4-(1,1-dioxidothiomorpholino)phenyl)-N,9,9-trimethyl-3,6-diazabicyclo[3.2.2]nonane-3-carboxamide] was 50%.

The term IC50 denotes the concentration that inhibits the measured activity by half. Take `CC1(C)C[C@@H]2CN(c3ccc(N4CCS(=O)(=O)CC4)cc3)[C@H]1CCN2C(=O)N1CCS(=O)(=O)CC1` [Example 9, (1,1-dioxidothiomorpholino)((1R,5S)-6-(4-(1,1-dioxidothiomorpholino)phenyl)-9,9-dimethyl-2,6-diazabicyclo[3.2.2]nonan-2-yl)methanone]: the inhibition at 10 µM was 100% and the IC50 came out at 690 nM. As to `CC1(C)C[C@@H]2CN(C(=O)NC3CCS(=O)(=O)CC3)C[C@H]1N(c1ccc(N3CCS(=O)(=O)CC3)cc1)C2` [Example 11, (1S,5S)-N-(1,1-dioxidotetrahydro-2H-thiopyran-4-yl)-6-(4-(1,1-dioxidothiomorpholino)phenyl)-9,9-dimethyl-3,6-diazabicyclo[3.2.2]nonane-3-carboxamide], the inhibition at 10 µM was determined as 100%.

For the compound `CCOc1ccc(N2C[C@H]3CN(C(=O)N(CCO)CCO)C[C@@H]2C(C)(C)C3)cc1` [Example 14, (1S,5S)-6-(4-ethoxyphenyl)-N,N-bis(2-hydroxyethyl)-9,9-dimethyl-3,6-diazabicyclo[3.2.2]nonane-3-carboxamide], the inhibition at 10 µM was determined as 75%. The same measure, in the same setting: then `CCOc1ccc(N2C[C@H]3CN(C(=O)N4CC[C@H](O)C4)C[C@@H]2C(C)(C)C3)cc1` [Example 15, ((1S,5S)-6-(4-ethoxyphenyl)-9,9-dimethyl-3,6-diazabicyclo[3.2.2]nonan-3-yl)((S)-3-hydroxypyrrolidin-1-yl)methanone], with 84%; and `CCOc1ccc(N2C[C@H]3CN(C(=O)N(C)CCC#N)C[C@@H]2C(C)(C)C3)cc1` [Example 16, (1S,5S)-N-(2-cyanoethyl)-6-(4-ethoxyphenyl)-N,9,9-trimethyl-3,6-diazabicyclo[3.2.2]nonane-3-carboxamide], with 88%.

Take `CCOc1ccc(N2C[C@H]3CN(C(=O)N4CCC(C#N)CC4)C[C@@H]2C(C)(C)C3)cc1` [Example 17, 1-((1S,5S)-6-(4-ethoxyphenyl)-9,9-dimethyl-3,6-diazabicyclo[3.2.2]nonane-3-carbonyl)piperidine-4-carbonitrile]: the inhibition at 2.5 µM worked out at 77%. For `CCOc1ccc(N2C[C@H]3CN(C(=O)N4CCC(N5CCCC5)CC4)C[C@@H]2C(C)(C)C3)cc1` [Example 18, ((1S,5S)-6-(4-ethoxyphenyl)-9,9-dimethyl-3,6-diazabicyclo[3.2.2]nonan-3-yl)(4-(pyrrolidin-1-yl)piperidin-1-yl)methanone], the inhibition at 10 µM was 84%. Turning to `CCOc1ccc(N2C[C@H]3CN(C(=O)NC[C@@H](O)CO)C[C@@H]2C(C)(C)C3)cc1` [Example 19, (1S,5S)-N-((R)-2,3-dihydroxypropyl)-6-(4-ethoxyphenyl)-9,9-dimethyl-3,6-diazabicyclo[3.2.2]nonane-3-carboxamide], the inhibition at 10 µM turned out to be 100%. With `CCOc1ccc(N2C[C@@H]3CC(C)(C)[C@H]2CCN3C(=O)NCCO)cc1` [Example 20, (1S,5R)-6-(4-ethoxyphenyl)-N-(2-hydroxyethyl)-9,9-dimethyl-2,6-diazabicyclo[3.2.2]nonane-2-carboxamide], the inhibition at 10 µM was 79%. The same measure, in the same setting: the value for `CCOc1ccc(N2C[C@@H]3CN(C(=O)NCCO)C[C@H]2C(C)(C)C3)cc1` [Example 21, (1R,5R)-6-(4-ethoxyphenyl)-N-(2-hydroxyethyl)-9,9-dimethyl-3,6-diazabicyclo[3.2.2]nonane-3-carboxamide] was 94%; that for `CCOc1ccc(N2C[C@H]3CC(C)(C)[C@@H]2CCN3C(=O)NCCO)cc1` [Example 22, (1R,5S)-6-(4-ethoxyphenyl)-N-(2-hydroxyethyl)-9,9-dimethyl-2,6-diazabicyclo[3.2.2]nonane-2-carboxamide] was 100%. `CCOc1ccc(N2C[C@@H]3CC4(CCCCC4)[C@H]2CCN3C(=O)NCCO)cc1` [Example 23, (1S,5R)-6-(4-ethoxyphenyl)-N-(2-hydroxyethyl)-2,6-diazaspiro[bicyclo[3.2.2]nonane-9,1′-cyclohexane]-2-carboxamide]: the inhibition at 10 µM was found to be 100% and the half-inhibitory concentration (IC50) was found to be 370 nM. For `CCOc1cccc(N2C[C@H]3CN(C(=O)NCCO)C[C@@H]2C(C)(C)C3)c1` [Example 24, (1S,5S)-6-(3-ethoxyphenyl)-N-(2-hydroxyethyl)-9,9-dimethyl-3,6-diazabicyclo[3.2.2]nonane-3-carboxamide], the inhibition at 10 µM worked out at 100% and the IC50 is below 630 nM.

Regarding `CCOc1ccc(N2C[C@H]3CN(C(=O)Nc4cc(C)n[nH]4)C[C@@H]2C(C)(C)C3)cc1` [Example 25, (1S,5S)-6-(4-ethoxyphenyl)-9,9-dimethyl-N-(3-methyl-1H-pyrazol-5-yl)-3,6-diazabicyclo[3.2.2]nonane-3-carboxamide], the inhibition at 10 µM came to 73%. For `CC1(C)C[C@@H]2CN(C(=O)NCCO)C[C@H]1N(c1ccc(Oc3ccccn3)cc1)C2` [Example 28, (1S,5S)-N-(2-hydroxyethyl)-9,9-dimethyl-6-(4-(pyridin-2-yloxy)phenyl)-3,6-diazabicyclo[3.2.2]nonane-3-carboxamide], the inhibition at 10 µM stood at 100%.

`CC1(C)C[C@@H]2CN(C(=O)NCCO)C[C@H]1N(c1ccc(N3CCC(F)(F)CC3)cc1)C2` [Example 30, (1S,5S)-6-(4-(4,4-difluoropiperidin-1-yl)phenyl)-N-(2-hydroxyethyl)-9,9-dimethyl-3,6-diazabicyclo[3.2.2]nonane-3-carboxamide]: the inhibition at 10 µM was 100% and the IC50 turned out to be 330 nM.
